Measurements published in PMC9884808, “Pharmacokinetics, tissue distribution, and antitumor activity of a novel compound, NY-2, in non-small cell lung cancer” (Frontiers in Pharmacology, 2023).
Marks after values point to notes of the source that are not given here.

Tests used:
A549 cells [1] = experiment: Apoptosis, annexin-V/PI double staining; assay type: cell-based, human; details: 48 h, control 0.86 ± .05%
Description: For the apoptosis assay, cells were seeded into 6-well plates at 1× 10^5 cells per well, and after attachment for 4–6 h, they were incubated with different concentration of NY-2 for 48 h. After washing with 1×PBS, the cells were stained with Hoechst 33342 (5 μg/mL, 1 mL per well, C1022, Beyotime Biotechnology, China) for 20 min in a 37°C incubator followed by two washes with PBS. The number of apoptotic cells was counted under an inverted fluorescence microscope (Olympus, Japan). Apoptosis was also determined using an annexin V-FITC apoptosis detection kit (ABS50001, Absin Bioscience Inc., Shanghai, China). Cells were plated in 100 mm Petri dishes at a density of 1 × 10^6 cells/dish, after 4–6 h for attachment, cells were incubated with different concentrations of NY-2 for 48 h. For each sample, cells were harvested by trypsin digestion without EDTA and washed with 1 × PBS. Cells were resuspended in 300 μL of binding buffer, and 5 μL of annexin V-FITC solution were added and incubated at room temperature in the dark for 15 min, followed by the addition of 5 μL of propidium iodide (PI) solution. The sample staining was assessed by flow cytometry (BD Co., United States).

A549 cells [2] = details: 28 days
Description: The experimental groups included the normal (no tumor cells, vehicle) group, the model (tumor cells, vehicle) group, NY-2-treated, and paclitaxel-treated groups, with six mice in each group. After 7 days for adaptation, 200 µL of A549 cells (2× 10^6 cells/mice) in serum-free medium were injected into the tail vein except for those in the normal group. Drug or vehicle administration via tail vein was started on the next day. The normal group and model group were given the same amount of sterile water containing 1% DMSO and 1% Tween as vehicle control. […] Injections were done every other day. The general conditions of the nude mice, with regard to activity and food ingestion, were observed every day, and their body weight was measured every other day.
KM mice were treated with ZLDI-8 or NY-2 by tail vein injection (6 mg/kg) for 7 days, then the mice were euthanized and liver and kidney tissues were removed and sectioned. For the experiment with BALB/c nude mice, the tail vein injections of NY-2 (6 mg/kg) were continued for 28 days, and the lungs, tumor, heart, liver, and kidney were removed. […] Sections for staining were dewaxed with xylene and then rehydrated, and hematoxylin-eosin staining was performed, after which the sections were again dehydrated in ethanol and cleared with xylene before being mounted on a slide, cover-slipped and examined microscopically. The remainder of the tumors and tissues was frozen in liquid nitrogen for other studies.

A549 cells [3] = experiment: Colony formation assay; assay type: cell-based, human; details: 2.5, 5, 10 μM; 9 days of growth
A549 cells [4] = experiment: Wound-healing migration assay; assay type: cell-based, human; details: 48 h
Description: A wound-healing assay was used to assess the migration ability. Cells were seeded into 6-well plates at 3 × 10^5 cells per well. At about 90% confluence, uniform scratches were made in the monolayer using a sterile 200 μL pipet tip. After washing with phosphate-buffered saline (PBS), the cells were cultured in 2% FBS medium and photos were taken at 0 and 48 h. The rate of cell migration was determined by measuring the decrease in gap with compared to the initial gap at 0 h. Readings were performed independently in triplicate.

Notch1 and integrinβ1 = experiment: Western blot protein analysis; assay type: cell-based, human
Excerpt: Antibodies against ADAM17 (Cat. No. ab39163), Notch1 (Cat. No. ab52627), integrin β1 (Cat. No. ab52971), β-actin (Cat. No. ab8226), and anti-rabbit IgG (Cat. No. ab6728) and anti-mouse IgG (Cat. No. ab190475) secondary antibodies conjugated with horseradish peroxidase (HRP) were purchased from Abcam (Cambridge, United Kingdom). Total protein was extracted from HCC cells, and samples were separated by SDS-PAGE and blotted to polyvinylidene fluoride (PVDF) membranes (Millipore, Billerica, MA, United States). The membranes were blocked and then incubated with primary antibodies, followed by washing and incubation with HRP-conjugated secondary antibodies. Stained blots were developed with enhanced chemiluminescence reagents (Pierce, Rockford, IL, United States) and imaged on X-ray film.

[5] = Acute toxicity assay in KM mice; assay type: in vivo; details: tail vein injection 1000 mg/kg in saline, 10 days observation, 6 animals per group
Description: An acute toxicity assay was assessed in KM mice by tail vein injection of NY-2 dissolved in saline at a dose of 1000 mg/kg (6 animals per group).

[6] = Metabolic stability, liver microsome incubation; assay type: in vitro ADME; details: 100 μM
Description: Rat liver microsomes (RLMS) and human liver microsomes (HLMs) were purchased from RILD and BioIVT, respectively.The metabolic stability of 100 μm Zldi-8 and NY-2 in rat and human liver microsomes was investigated. Zldi-8/NY-2(100 ΜM)10 μl, mgcl210 ΜL, RLMs/HLMs 62.5 μl, PBS (ph 7.4)117.5 μl, NADPH 50 ΜL were added to the metabolic incubation system in ice bath, respectively.After adding in sequence, the incubation systems were pre-incubated for 3 min in a 37 ° C incubator, and then NADPH was added to start the reaction, and the incubation systems were removed at 0 min, 5 min, 10 min, 20 min, 30 min, 60 min, 90 min, 50 ΜL incubation solution was taken out respectively, and the reaction was stopped by rapidly adding equal volume of ice acetonitrile solution containing propranolol hydrochloride (internal standard) , vortex for 3 min, centrifugation at 4 ° C, 9500 rpm for 10 min, the content of the supernatant was determined by HPLC.The experiment was repeated three times in parallel.

A549 cells [7] = experiment: LDH activity assay; assay type: cell-based, human; details: 48 h, increasing concentrations, vs control
Description: Cell viability was measured by the MTT assay. HCT116, HL7702, A549, H1993, HCC827, and H460 cells were dispensed into 96-well plates at a density of 1 × 10^5 cells/mL. After 24–48 h incubation, cells were treated with the compounds at different concentrations for the indicated periods. An assay kit (WLA073, Wanlei Co., Liaoning, China), was used according to the manufacturer’s instructions to measure LDH activity, The absorbance at 450 nm was measured with a microplate reader (Elx-800, Bio-Rad, China).

[8] = nude mice, NY-2 6 mg/kg, paclitaxel 1 mg/kg, n=6, mean ± SEM

Structure (SMILES): Cc1c(C=C2C(=O)NC(=S)NC2=O)c2ccccc2n1CCOc1ccc(F)cc1 [NY-2]
- percentage of A549 cells in apoptosis (A549 cells [1]; 5 μM): 5.45 ± 3.28%
- percentage of A549 cells in apoptosis (A549 cells [1]; 10 μM): 20.29 ± 3.11%
- Body weight before dissection (A549 cells [2]; nude mice with A549 lung metastasis, tail vein every other day, NY-2 6 mg/kg, paclitaxel 1 mg/kg, n=6, mean ± SEM): 23.48 ± 0.50 g
- Heart as a proportion of body weight (A549 cells [2]; [8]): 0.56 ± 0.03 10^-2
- Kidney as a proportion of body weight (A549 cells [2]; [8]): 1.74 ± 0.03 10^-2
- Liver as a proportion of body weight (A549 cells [2]; [8]): 5.45 ± 0.05# 10^-2
- Lung as a proportion of body weight (A549 cells [2]; [8]): 0.67 ± 0.03 10^-2
- Quality of the heart (A549 cells [2]; [8]): 0.13 ± 0.01 g
- Quality of the kidney (A549 cells [2]; [8]): 0.41 ± 0.01 g
- Quality of the liver (A549 cells [2]; [8]): 1.28 ± 0.04 g
- Quality of the lung (A549 cells [2]; [8]): 0.16 ± 0.01 g
- average percentage of metastatic lung surface area to the total lung area (A549 cells [2]; nude mice, A549 tail vein, NY-2 6 mg/kg every other day, model group 12.91 ± 11.93%): 0.25 ± .62%
- infiltration of A549 cells in the lung tissue (H&E) (A549 cells [2]; nude mice, NY-2 6 mg/kg, paclitaxel 1 mg/kg): no infiltration of A549 cells in the lung tissue
- toxic effects on the heart, liver or kidney (H&E) (A549 cells [2]; nude mice, tail vein injection 6 mg/kg): no obvious toxic effects
- colony formation of A549 cells (A549 cells [3]): inhibit colony formation of A549 cells in a concentration-dependent manner
- migration of A549 cells (A549 cells [4]): inhibit the invasion and migration of A549 cells in a concentration-dependent manner
- expression of Notch1 and integrinβ1 (Notch1 and integrinβ1): reduced the expression of Notch1 and integrinβ1in a dose-dependence manner
- deaths in acute toxicity assay [5]: no deaths occurred
- residual level (metabolic stability) ([6]; human liver microsomes): greater than that of ZLDI-8
- residual level (metabolic stability) ([6]; rat liver microsomes): greater than that of ZLDI-8
- LDH activity in cell culture supernatants (A549 cells [7]): increased in a concentration-dependent manner
